Measured values taken from PubChem BioAssay AID2060510 (Molecular Pharmacology Branch, DTP, NCI, 2025).

Tested on: 439559-082-T-J2-PDC spheroids viability
Experiment: Anticancer human tumor 439559-082-T-J2-PDC patient-derived colon adenocarcinoma cell line growth inhibition [GQUAD]
Conditions: for IC50: curve of first compound; for viability, T/C: stronger effect = lower value; active means viability on the fitted dose curve at most 10% of control; inactive means the rest
Procedure, shortened: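 Tumor cells were grown as complex spheroids with HUVEC endothelial cells and mesenchymal stem cells as stroma. G-quadruplex stabilizers were combined with targeted agents over half-log dilutions from near the clinical Cmax, or from 10 microM.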

[1] = second compound 0.0316 µM, first compound 0.0316 µM
[2] = second compound 0.0316 µM, first compound 0.1 µM
[3] = second compound 0.0316 µM, first compound 0.316 µM
[4] = second compound 0.0316 µM, first compound 1 µM
[5] = second compound 0.0316 µM, first compound 3.16 µM
[6] = second compound 0.0316 µM, first compound 10 µM
[7] = second compound 0.1 µM, first compound 0.0316 µM
[8] = second compound 0.1 µM, first compound 0.1 µM
[9] = second compound 0.1 µM, first compound 0.316 µM
[10] = second compound 0.1 µM, first compound 1 µM
[11] = second compound 0.1 µM, first compound 3.16 µM
[12] = second compound 0.1 µM, first compound 10 µM
[13] = second compound 0.316 µM, first compound 0.0316 µM
[14] = second compound 0.316 µM, first compound 0.1 µM
[15] = second compound 0.316 µM, first compound 0.316 µM
[16] = second compound 0.316 µM, first compound 1 µM
[17] = second compound 0.316 µM, first compound 3.16 µM
[18] = second compound 0.316 µM, first compound 10 µM
[19] = second compound 1 µM, first compound 0.0316 µM
[20] = second compound 1 µM, first compound 0.1 µM
[21] = second compound 1 µM, first compound 0.316 µM
[22] = second compound 1 µM, first compound 1 µM
[23] = second compound 1 µM, first compound 3.16 µM
[24] = second compound 1 µM, first compound 10 µM
[25] = second compound 3.16 µM, first compound 0.0316 µM
[26] = second compound 3.16 µM, first compound 0.1 µM
[27] = second compound 3.16 µM, first compound 0.316 µM
[28] = second compound 3.16 µM, first compound 1 µM
[29] = second compound 3.16 µM, first compound 3.16 µM
[30] = second compound 3.16 µM, first compound 10 µM
[31] = second compound 10 µM, first compound 0.0316 µM
[32] = second compound 10 µM, first compound 0.1 µM
[33] = second compound 10 µM, first compound 0.316 µM
[34] = second compound 10 µM, first compound 1 µM
[35] = second compound 10 µM, first compound 3.16 µM
[36] = second compound 10 µM, first compound 10 µM
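Further: spheroids exposed to the agents for 7 days before readout.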
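Wherever viability, T/C is given: percent of luminescence signal in DMSO vehicle wells taken as 100% viability.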

C=CCn1c(=O)c2cnc(Nc3ccc(N4CCN(C)CC4)cc3)nc2n1-c1cccc(C(C)(C)O)n1 + Cc1[nH]c2ccc(F)cc2c1-c1nc2c3cccnc3c3ncccc3c2[nH]1
8.08 µM: IC50 (second compound 0.316 µM)
7.9 µM: IC50 (second compound 0.0316 µM)
inactive: viability, T/C [1] 94.2% | viability, T/C [2] 92.7% | viability, T/C [3] 97.6% | viability, T/C [4] 101% | viability, T/C [5] 115% | viability, T/C [6] 37% | viability, T/C [7] 96.6% | viability, T/C [8] 88.4% | viability, T/C [9] 103% | viability, T/C [10] 92.9% | viability, T/C [11] 98.5% | viability, T/C [12] 57.4% | viability, T/C [13] 97.7% | viability, T/C [14] 102% | viability, T/C [15] 89% | viability, T/C [16] 104% | viability, T/C [17] 106% | viability, T/C [18] 38.6% | viability, T/C [19] 107% | viability, T/C [20] 99% | viability, T/C [21] 100% | viability, T/C [22] 95.7% | viability, T/C [23] 96.9% | viability, T/C [24] 41.2% | viability, T/C [25] 80.5% | viability, T/C [26] 80.2% | viability, T/C [27] 78.7% | viability, T/C [28] 75.5% | viability, T/C [29] 76.1% | viability, T/C [30] 25.9% | viability, T/C [31] 97.4% | viability, T/C [32] 71.8% | viability, T/C [33] 72.6% | viability, T/C [34] 71.3% | viability, T/C [35] 80.4% | viability, T/C [36] 20.3%
> 10 µM: IC50 (second compound 0.1 µM)
8.33 µM: IC50 (second compound 1 µM)
5.74 µM: IC50 (second compound 3.16 µM)
5.56 µM: IC50 (second compound 10 µM)

CC1COCCN1c1cc(C2(O)CC3CCC(C2)O3)c2cnn(-c3ccn[nH]3)c2n1 (stereo unspecified) + Cc1[nH]c2ccc(F)cc2c1-c1nc2c3cccnc3c3ncccc3c2[nH]1
0.863 µM: IC50 (second compound 3.16 µM)
1.45 µM: IC50 (second compound 0.316 µM)
2.59 µM: IC50 (second compound 0.1 µM)
1.69 µM: IC50 (second compound 0.0316 µM)
inactive: viability, T/C [1] 84.5% | viability, T/C [2] 84.2% | viability, T/C [3] 78.2% | viability, T/C [4] 58.6% | viability, T/C [5] 38.9% | viability, T/C [6] 39.5% | viability, T/C [7] 89.5% | viability, T/C [8] 76.3% | viability, T/C [9] 71.1% | viability, T/C [10] 61.9% | viability, T/C [11] 46.7% | viability, T/C [12] 35.2% | viability, T/C [13] 97.2% | viability, T/C [14] 80.2% | viability, T/C [15] 70.8% | viability, T/C [16] 49.9% | viability, T/C [17] 44.6% | viability, T/C [18] 37.3% | viability, T/C [19] 83.8% | viability, T/C [20] 77.3% | viability, T/C [21] 70.2% | viability, T/C [22] 55% | viability, T/C [23] 40.3% | viability, T/C [24] 33.4% | viability, T/C [25] 85.7% | viability, T/C [26] 67.8% | viability, T/C [27] 63.5% | viability, T/C [28] 51% | viability, T/C [29] 32.8% | viability, T/C [30] 27% | viability, T/C [31] 75.4% | viability, T/C [32] 74.5% | viability, T/C [33] 57.1% | viability, T/C [34] 52.1% | viability, T/C [35] 33.4% | viability, T/C [36] 27.1%
0.867 µM: IC50 (second compound 10 µM)
1.49 µM: IC50 (second compound 1 µM)

O=C(c1cc(Cc2n[nH]c(=O)c3ccccc23)ccc1F)N1CCN(C(=O)C2CC2)CC1 + Cc1cnc(CNC(=O)c2c(=O)c3ccc(N4CCCN(C)CC4)nc3n3c2sc2ccccc23)cn1
> 10 µM: IC50 (second compound 0.0316 µM) | IC50 (second compound 0.1 µM) | IC50 (second compound 0.316 µM) | IC50 (second compound 1 µM) | IC50 (second compound 3.16 µM) | IC50 (second compound 10 µM)
inactive: viability, T/C [1] 94% | viability, T/C [2] 99.1% | viability, T/C [3] 97.3% | viability, T/C [4] 94% | viability, T/C [5] 96.8% | viability, T/C [6] 98.2% | viability, T/C [7] 97% | viability, T/C [8] 87.7% | viability, T/C [9] 88.4% | viability, T/C [10] 89.5% | viability, T/C [11] 101% | viability, T/C [12] 91.9% | viability, T/C [13] 90.6% | viability, T/C [14] 93.2% | viability, T/C [15] 84.1% | viability, T/C [16] 85.5% | viability, T/C [17] 85.7% | viability, T/C [18] 78.8% | viability, T/C [19] 82.8% | viability, T/C [20] 75% | viability, T/C [21] 72.5% | viability, T/C [22] 73.1% | viability, T/C [23] 89.7% | viability, T/C [24] 81.7% | viability, T/C [25] 75.5% | viability, T/C [26] 62.9% | viability, T/C [27] 68.8% | viability, T/C [28] 73.8% | viability, T/C [29] 74.9% | viability, T/C [30] 68.5% | viability, T/C [31] 68.3% | viability, T/C [32] 71.4% | viability, T/C [33] 69% | viability, T/C [34] 68.8% | viability, T/C [35] 71.9% | viability, T/C [36] 61.8%
